Here are results for one molecule from PMC12693167, “Design, Synthesis and Anticancer Activity of 6-Substituted-1-(3,4,5-trimethoxyphenyl)-1H-indole Against Tubulin Polymerisation” (Molecules, 2025).

Where “and” joins values, the source holds several entries; their conditions need not be identical. Equal entries are not always repeated.

Assay [1] deals with T1, purified porcine brain tubulin (Sus scrofa, UniProt P02554).
T1 construct: purified porcine brain tubulin; from tissue; host or cells: porcine brain
The assay is described as follows: Biolayer interferometry (BLI) binding to tubulin. The settings on record: immobilized tubulin, 1:1 binding model, mean ± SD, triplicate. Here is the method: To detect the direct interaction between the synthesized compounds and tubulin, biolayer interferometry (BLI) experiments were performed using purified porcine brain tubulin immobilized on Super Streptavidin (SSA) biosensor [30]. […] Association and dissociation kinetics were monitored in real time, and equilibrium dissociation constants (KD) were determined by global fitting of the sensorgrams to a 1:1 binding model. All measurements were conducted in triplicate, and results are reported as mean ± SD.
BLI assays were performed on an Octet RED96 instrument (FortéBio, Pall Life Sciences, Menlo Park, CA, USA) at 25 °C in PBS buffer supplemented with 0.02% (v/v) Tween-20 as the running buffer. Biotinylated tubulin proteins (3 μg/mL) were immobilized onto Super Streptavidin (SSA) biosensors. Association and dissociation were monitored for 60 s each. […] Reference subtraction was performed using sensors incubated in running buffer without protein loading to correct for baseline drift. Data were analyzed using Octet Data Analysis software (version 9.0), and equilibrium dissociation constants (KD) were determined by fitting the curves to a 1:1 binding model. All measurements were performed in triplicate, and results are reported as mean ± SD.
BLI assays were performed on an Octet RED96 instrument (FortéBio, Pall Life Sciences) at 25 °C in PBS buffer supplemented with 0.02% (v/v) Tween-20 as the running buffer. Biotinylated tubulin proteins (3 μg/mL) were immobilized onto Super Streptavidin (SSA) biosensors. Association and dissociation were monitored for 60 s […]
Reference subtraction was performed using sensors incubated in running buffer without protein loading to correct for baseline drift. Data were analyzed using Octet Data Analysis software (version 9.0), and equilibrium dissociation constants (KD) were determined by fitting the curves to a 1:1 binding model. All measurements were performed in triplicate, and results are reported as mean ± SD.

Another assay has as its system MCF-7 cells. Kind of assay: Cell cycle analysis by flow cytometry. The settings on record: 10 μM, 48 h. The assay is classed as cell-based, human. Here is the method: Given that microtubule polymerization inhibitors are known to disrupt mitosis and induce cell cycle arrest, we evaluated the effect of compound 3g on cell cycle progression in MCF-7 cells by flow cytometry.
MCF-7 cells were seeded in 6-well plates and cultured overnight. Cells were then treated with compound 3g at concentrations of 0.1, 1, and 10 μM for 48 h. After treatment, cells were collected and fixed in 70% ethanol at 4 °C overnight. The fixed cells were washed and resuspended in staining buffer containing RNase A and propidium iodide (PI), followed by incubation in the dark at 37 °C for 30 min. DNA content was subsequently analyzed by flow cytometry.
Figure 6 Cell cycle arrest induced by compound 3g. (A) Compound 3g induced G2/M arrest in MCF-7 cells. MCF-7 cells were incubated with varying concentrations of compound 3g (0.1, 1, and 10 μM) for 48 h. The percentages of cells in different phases of the cell cycle were analyzed by FlowJo 10.8.1. (B) Histograms display the percentage of cell cycle distribution after treatment with compound 3g. Data are expressed as mean ± standard deviation from three independent experiments. Statistical significance was determined by one-way ANOVA followed by Tukey’s post hoc test.

Assay [2] concerns B16F10 melanoma tumors in BALB/c mice. Kind of assay: In vivo antitumor efficacy, subcutaneous B16-F10 melanoma model. On the set-up: species or system mouse. Conditions: 14 days, from tumor weight. The protocol:
The in vivo antitumor activity of compound 3g was evaluated using a mouse melanoma tumor model in BALB/c mice. Tumors were established by subcutaneous inoculation of B16F10 cells, and treatment was initiated when tumors reached a measurable size. Mice were administered vehicle control, paclitaxel (PTX, 10 mg/kg), or compound 3g (20 and 50 mg/kg) via intraperitoneal injection once daily for 14 consecutive days.
All animal procedures were approved by the Animal Ethics Committee of the Naval Medical University (permit number: EC11-055). Male BALB/c mice (6–8 weeks old, average initial body weight approximately 18–20 g) were purchased from Shanghai SLAC Laboratory Animal Co., Ltd. The inhibitory effect of compound 3g was evaluated using a subcutaneous B16-F10 melanoma xenograft model. Log-phase B16F10 cells were suspended in PBS and subcutaneously injected into mice (200 μL containing 8 × 10^5 cells per mouse) to establish tumors. Mice were randomly divided into control and treatment groups (n = 8). Compound 3g and paclitaxel were dissolved in a vehicle consisting of DMSO:PEG:Tween-80:saline (v/v/v/v, 5:35:10:50) to the desired concentrations. Treatments (paclitaxel, 10 mg/kg; compound 3g, 20 and 50 mg/kg, doses calculated on a body-weight basis) and vehicle were administered once daily via intraperitoneal injection for 14 consecutive days. Body weights were monitored throughout the study to assess acute toxicity. Tumor volumes were measured using calipers and calculated with the formula: a × b^2 × 0.5, where a and b represent the larger and smaller tumor diameters, respectively. On day 14, mice were sacrificed and tumors were excised and weighed. […] Major organs (liver and kidneys) were collected, fixed in 4% paraformaldehyde, processed into paraffin sections, stained with hematoxylin and eosin (H&E), and examined microscopically.
Murine melanoma B16-F10 xenograft tumors were established in mice, which were then administered vehicle, PTX (10 mg/kg per day), compound 3g (20 mg/kg per day), and compound 3g (50 mg/kg per day) for 14 days. […]

T1 sequence (P02554 whole entry): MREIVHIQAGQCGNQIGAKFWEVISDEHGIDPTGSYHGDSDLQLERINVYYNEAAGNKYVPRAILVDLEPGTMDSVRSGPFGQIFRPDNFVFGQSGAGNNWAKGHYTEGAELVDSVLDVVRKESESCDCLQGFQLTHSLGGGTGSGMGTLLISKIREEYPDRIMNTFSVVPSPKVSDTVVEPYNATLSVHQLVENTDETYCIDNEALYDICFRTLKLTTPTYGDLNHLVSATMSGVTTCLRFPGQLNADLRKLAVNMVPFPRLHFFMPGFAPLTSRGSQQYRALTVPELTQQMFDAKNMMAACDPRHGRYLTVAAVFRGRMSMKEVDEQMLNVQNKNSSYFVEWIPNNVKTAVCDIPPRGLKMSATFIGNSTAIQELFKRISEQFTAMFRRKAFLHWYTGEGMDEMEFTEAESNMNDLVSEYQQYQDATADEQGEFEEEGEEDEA
T1 sequence (P02550 whole entry partner): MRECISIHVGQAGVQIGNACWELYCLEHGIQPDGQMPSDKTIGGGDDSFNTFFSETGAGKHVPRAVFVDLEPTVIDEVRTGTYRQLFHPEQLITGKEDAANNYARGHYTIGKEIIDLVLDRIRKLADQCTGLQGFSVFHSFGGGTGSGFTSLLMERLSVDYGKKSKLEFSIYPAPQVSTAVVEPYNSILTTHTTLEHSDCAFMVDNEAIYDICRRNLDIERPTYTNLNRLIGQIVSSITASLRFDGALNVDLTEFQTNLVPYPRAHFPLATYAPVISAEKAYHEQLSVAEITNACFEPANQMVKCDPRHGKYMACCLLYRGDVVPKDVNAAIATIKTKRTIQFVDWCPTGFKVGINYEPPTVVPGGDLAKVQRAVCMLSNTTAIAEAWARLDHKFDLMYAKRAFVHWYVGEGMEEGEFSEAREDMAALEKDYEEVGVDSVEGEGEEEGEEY

For orientation: Kd means a measure of binding affinity in units of concentration. As to `COc1cc(-n2ccc3ccc(-c4ccc(C)c(C#N)c4)cc32)cc(OC)c1OC` [3g, 2-methyl-5-(1-(3,4,5-trimethoxyphenyl)-1H-indol-6-yl)benzonitrile], in assay [1], the KD result is “low micromolar range” and the dissociation constant (Kd) was 13 ± 1.17 µM. Also, in the assay on MCF-7 cells, the “cells in the G2/M phase” value is “marked accumulation”. Moreover, the “tumor growth inhibition (TGI)” value in assay [2] (20 mg/kg i.p. once daily) is 23.3% and 23.34%. Further, the “tumor growth inhibition (TGI)” value in assay [2] (50 mg/kg i.p. once daily) is 44.2% and 44.18%.
